Results reported in patent publication EP4707280A1, “1,4-CINEOLE DERIVATIVE AND INTERMEDIATE THEREOF, HERBICIDE CONTAINING SAID DERIVATIVE AS ACTIVE INGREDIENT, METHOD FOR USING HERBICIDE, AND METHOD FOR PREPARING AGROCHEMICAL COMPOSITION” (HOKKO CHEMICAL INDUSTRY CO., LTD., priority 2023, dated 2024).

Columns and labels:
Assay type in all cases: in vivo
[1] = test system: Echinochloa crus-galli; assay: Test Example 4: herbicidal effect test by stem and leaf treatment in upland field; settings: 120 g per 10 ares, sprayed seven days after sowing, upland soil, 14 days after application; for inhibition at 1200 g/ha: Echinochloa crus-galli, read-out: weed inhibition rate
[2] = test system: Digitaria ciliaris; assay: as above; settings: 120 g per 10 ares, sprayed seven days after sowing, upland soil, 14 days after application; for inhibition at 1200 g/ha: Digitaria ciliaris, read-out: weed inhibition rate
Protocol: (§1) The present test was conducted in duplicate for each chemical concentration group, and the weed inhibition rate (%) was determined 14 days after chemical application using the following formula (Math. 1). [formula]
(§2) Pots with an area of 36 cm^2 were filled with upland soil (alluvial loam), twenty seeds each of weeds of Digitaria ciliaris, Echinochloa crus-galli, and Amaranthus viridis were uniformly mixed with the top 1 cm layer of soil and the surface was lightly pressed down. Seven days after sowing, an emulsifiable concentrate prepared according to Formulation Example 5 using the compound shown below was diluted with water, and the diluted solution was sprayed onto the soil surface at a rate of 100 liters per 10 ares. The amount of the active ingredient to be applied was equivalent to 120 g per 10 ares. Fourteen days after chemical application, the herbicidal effect was evaluated according to the same criteria as in Test Example 1.

[3] = test system: Echinochloa crus-galli var. formosensis; assay: Test Example 2: herbicidal effect test by application during growth period of paddy rice; settings: 120 g per 10 ares, applied seven days after sowing, flooded pots, 14 days after application; for inhibition at 1200 g/ha: Echinochloa crus-galli, read-out: weed inhibition rate
Protocol: as §1
(§3) Wagner pots with an area of […] were filled with paddy soil, followed by addition of water and incorporation of chemical fertilizer (N:P:K = 16:16:16), after which puddling was performed. After that, seeds of Echinochloa crus-galli var. formosensis, broad-leaved weeds (Monochoria vaginalis), and Scirpus juncoides were sown at a depth of 0 cm to 1 cm, 30 seeds each. Immediately after sowing, the pots were flooded and a water depth of approximately 3 cm was maintained. Subsequent management was conducted in a glass greenhouse. Seven days after sowing, an emulsifiable concentrate prepared according to Formulation Example 5 using the compound shown below was diluted with water, and a specified amount of the diluted solution was applied by dropper. The amount of the active ingredient to be applied was equivalent to 120 g per 10 ares. The test was conducted in duplicate for each chemical concentration group, and the herbicidal effect was evaluated 14 days after chemical application using the same criteria as in Test Example 1.

[4] = test system: Digitaria ciliaris; assay: Test Example 3: herbicidal effect test by soil application in upland field; settings: 120 g per 10 ares, sprayed one day after sowing, 14 days after application; for inhibition at 1200 g/ha: Digitaria ciliaris, read-out: weed inhibition rate
Protocol: as §1
as §2, with “crus-galli, Chenopodium album,” for “crus-galli,”, “One day” for “Seven days”

[5] = test system: Echinochloa crus-galli; assay: as above; settings: 120 g per 10 ares, sprayed one day after sowing, 14 days after application; for inhibition at 1200 g/ha: Echinochloa crus-galli, read-out: weed inhibition rate
Protocol: as §1
as §2, with “crus-galli, Chenopodium album,” for “crus-galli,”, “One day” for “Seven days”

[6] = test system: Echinochloa crus-galli var. formosensis; assay: Test Example 1: herbicidal effect test by soil application in paddy rice; settings: 120 g active ingredient per 10 ares, applied immediately after sowing, flooded pots, 14 days after application; for pest or weed control at 1200 g/ha: Echinochloa crus-galli, soil, 336 h, read-out: weed inhibition rate
Protocol: as §3, with “([…] Monochoria” for “(Monochoria”, “Immediately thereafter,” for “Seven days after sowing,”, “ares.” for “ares. The test was conducted in duplicate for each chemical concentration group, and the herbicidal effect was evaluated 14 days after chemical application using the same criteria as in Test Example 1.”

CCOC1C[C@]2(C)O[C@@]1(C(C)C)C[C@H]2OCc1ccccc1F (mixture of isomers) [1-916, (1S,2R,4R,SR)-5-ethoxy-2-[(2-fluorophenyl)methoxy]-1-methyl-4-isopropyl-7-oxabicyclo[2.2.1]heptane]
≥ 80%: inhibition at 1200 g/ha [1] | inhibition at 1200 g/ha [2]

CC(C)=CCO[C@H]1C[C@@]2(C(C)C)O[C@]1(C)CC2Br (mixture of isomers) [1-1007, (1R,2S,4S,SR)-5-bromo-1-methyl-2-(3-methylbut-2-enoxy)-4-isopropyl-7-oxabicyclo[2.2.1]heptane]
≥ 80%: inhibition at 1200 g/ha [1] | inhibition at 1200 g/ha [2] | inhibition at 1200 g/ha [3] | inhibition at 1200 g/ha [4] | inhibition at 1200 g/ha [5] | pest or weed control at 1200 g/ha [6]

CC(C)[C@@]12C[C@H](OCc3ccccc3Cl)[C@@](C)(CC1Br)O2 (mixture of isomers) [1-1031, (1R,2S,4S,SR)-5-bromo-2-[(2-chlorophenyl)methoxy]-1-methyl-4-isopropyl-7-oxabicyclo[2.2.1]heptane]
≥ 80%: inhibition at 1200 g/ha [1] | inhibition at 1200 g/ha [2] | inhibition at 1200 g/ha [3] | inhibition at 1200 g/ha [4] | inhibition at 1200 g/ha [5] | pest or weed control at 1200 g/ha [6]

CC(C)[C@@]12C[C@H](OCc3ccccc3)[C@@](C)(CC1I)O2 (mixture of isomers) [1-1081, (1R,2S,4S,SR)-5-iodo-1-methyl-2-phenylmethoxy-4-isopropyl-7-oxabicyclo[2.2.1]heptane]
≥ 80%: inhibition at 1200 g/ha [1] | inhibition at 1200 g/ha [2] | inhibition at 1200 g/ha [3] | inhibition at 1200 g/ha [4] | inhibition at 1200 g/ha [5] | pest or weed control at 1200 g/ha [6]

CC(C)[C@]12C[C@@H](OCc3ccccc3F)[C@](C)(C[C@H]1C)O2 (racemic) [1-1597, (1SR,2RS,4RS,5RS)-2-[(2-fluorophenyl)methoxy]-1,5-dimethyl-4-isopropyl-7-oxabicyclo[2.2.1]heptane]
≥ 80%: inhibition at 1200 g/ha [1] | inhibition at 1200 g/ha [2] | inhibition at 1200 g/ha [3] | inhibition at 1200 g/ha [4] | inhibition at 1200 g/ha [5] | pest or weed control at 1200 g/ha [6]

C=CCO[C@@H]1C[C@]2(C(C)C)O[C@@]1(C)C[C@@H]2Br [1-671, (1S,2R,4R,5S)-5-bromo-1-methyl-4-isopropyl-2-prop-2-enoxy-7-oxabicyclo[2.2.1]heptane]
≥ 80%: inhibition at 1200 g/ha [1]

C#CCO[C@@H]1C[C@]2(C(C)C)O[C@@]1(C)C[C@@H]2Br [1-673, (1S,2R,4R,5S)-5-bromo-1-methyl-4-isopropyl-2-prop-2-ynoxy-7-oxabicyclo[2.2.1]heptane]
≥ 80%: inhibition at 1200 g/ha [3] | pest or weed control at 1200 g/ha [6]

COCO[C@@H]1C[C@]2(C(C)C)O[C@@]1(C)C[C@@H]2Br [1-677, (1S,2R,4R,5S)-5-bromo-2-(methoxymethoxy)-1-methyl-4-isopropyl-7-oxabicyclo[2.2.1]heptane]
≥ 80%: inhibition at 1200 g/ha [3]

CC(C)[C@]12C[C@@H](OCc3cccc(Br)c3)[C@](C)(C[C@@H]1Br)O2 [1-695, (1S,2R,4R,5S)-5-bromo-2-[(3-bromophenyl)methoxy]-1-methyl-4-isopropyl-7-oxabicyclo[2.2.1]heptane]
≥ 80%: inhibition at 1200 g/ha [1] | inhibition at 1200 g/ha [2] | inhibition at 1200 g/ha [3] | inhibition at 1200 g/ha [4] | inhibition at 1200 g/ha [5] | pest or weed control at 1200 g/ha [6]

CC(C)[C@]12C[C@@H](OCc3ccc(Br)cc3)[C@](C)(C[C@@H]1Br)O2 [1-696, (1S,2R,4R,5S)-5-bromo-2-[(4-bromophenyl)methoxy]-1-methyl-4-isopropyl-7-oxabicyclo[2.2.1]heptane]
≥ 80%: inhibition at 1200 g/ha [1] | inhibition at 1200 g/ha [2] | inhibition at 1200 g/ha [3] | inhibition at 1200 g/ha [4] | inhibition at 1200 g/ha [5] | pest or weed control at 1200 g/ha [6]

CC(C)[C@]12C[C@@H](OCc3cccc(C(F)(F)F)c3)[C@](C)(C[C@@H]1Br)O2 [1-701, (1S,2R,4R,5S)-5-bromo-l-methyl-4-isopropyl-2-[[3-(trifluoromethyl)phenyl]methoxy]-7-oxabicyclo[2.2.1]heptane]
≥ 80%: weed inhibition rate [1] | weed inhibition rate [2] | weed inhibition rate [3] | weed inhibition rate [4] | weed inhibition rate [5] | weed inhibition rate [6]

CC(C)[C@]12C[C@@H](OCc3ccc(C#N)cc3)[C@](C)(C[C@@H]1Br)O2 [1-705, 4-[[(1S,2R,4R,5S)-5-bromo-1-methyl-4-isopropyl-7-oxabicyclo[2.2.1]heptan-2-yl]oxymethyl]benzonitrile]
≥ 80%: inhibition at 1200 g/ha [1] | inhibition at 1200 g/ha [2] | inhibition at 1200 g/ha [3] | inhibition at 1200 g/ha [4] | inhibition at 1200 g/ha [5] | pest or weed control at 1200 g/ha [6]

CC(C)[C@]12C[C@@H](OCc3ccc4ccccc4c3)[C@](C)(C[C@@H]1Br)O2 [1-716, (1S,2R,4R,5S)-5-bromo-1-methyl-2-(naphthalen-2-ylmethoxy)-4-isopropyl-7-oxabicyclo[2.2.1]heptane]
≥ 80%: inhibition at 1200 g/ha [3] | pest or weed control at 1200 g/ha [6]

Cc1ccc(C2C[C@]3(C)O[C@@]2(C(C)C)C[C@H]3OCc2ccccc2F)cc1 (stereo partly drawn) [1-927, (1S,2R,4R)-2-((2-fluorobenzyl)oxy)-4-isopropyl-1-methyl-5-(p-tolyl)-7-oxabicyclo[2.2.1]heptane]
≥ 80%: inhibition at 1200 g/ha [4] | inhibition at 1200 g/ha [5]

CC(C)[C@@]12C[C@H](OCc3ccccc3)[C@@](C)(C[C@H]1Br)O2 [1-1015, (1R,2S,4S,5R)-5-bromo-1-methyl-2-phenylmethoxy-4-isopropyl-7-oxabicyclo[2.2.1]heptane]
≥ 80%: inhibition at 1200 g/ha [1] | inhibition at 1200 g/ha [2] | inhibition at 1200 g/ha [3] | inhibition at 1200 g/ha [4] | inhibition at 1200 g/ha [5] | pest or weed control at 1200 g/ha [6]

COc1cccc(CO[C@@H]2C[C@]3(C(C)C)O[C@@]2(C)CC3=O)c1 [2-347, (1R,4S,5R)-1-isopropyl-5-((3-methoxybenzyl)oxy)-4-methyl-7-oxabicyclo[2.2.1]heptan-2-one]
≥ 80%: inhibition at 1200 g/ha [5] | pest or weed control at 1200 g/ha [6]
